Where “and” joins values, the source holds several entries; their conditions need not be identical. Equal values may be shown once. Read-outs that look alike come from different tables or passages of the source. Where a SMILES comes first, the peptide text is derived from it.
Key:
[1] = system: Hepatitis A virus (HAV) strain HM-175; test: Virucidal effect of peptides on HAV (residual infectivity by TCID50 titration on Frp3 cells); assay type: cell-based; settings: for Viral Titre after Treatment: titration on Frp3 cells; for Viral Titre after Treatment / LRV (log reduction value): mean ± SD, triplicate
Description: (§1) Murine norovirus strain 1 (MNV-1) was used as a surrogate for human norovirus (NoV). The virus was replicated in RAW 264.7 cells (murine macrophage cell line) cultured in Dulbecco’s modified Eagle’s medium (DMEM) supplemented with 1% glutamine, 1% non-essential amino acids, and 2% fetal bovine serum (FBS). Hepatitis A virus (HAV) strain HM-175 was replicated in Frp3 cells (non-human primate cell line derived from fetal kidney) cultured in minimum essential medium (MEM) with Earle’s salts supplemented with 1% glutamine, 2% non-essential amino acids, and 2% FBS. Both viruses were incubated in 5% CO2 at 37 °C. All cell culture media were provided by EuroClone (Milan, Italy). The viral suspensions were prepared by freeze and thaw lysis (1 cycle for MNV-1 and 3 cycles for HAV) of infected monolayers, clarified using low-speed centrifugation (800× g) to remove residual cell debris, then divided in aliquots, and stored at −80 °C until use.
(§2) Solutions 40 µM and 80 µM of each peptide of the panel (RiLK1, RiLK3, RiLK30, 1018-K6, MTP1, and AVP2) were chosen for the virucidal tests. HAV and MNV-1 were assayed at a concentration of 4.7 ± 0.2 log TCID50/mL and 4.5 ± 0.2 log TCID50/mL, respectively. The suspensions containing the peptides and viruses were incubated for 1 h at room temperature (RT,20 ± 2 °C) and 4 °C. These temperatures were chosen to simulate the use of sanitizing solutions in food production/processing environments. Residual viral infectivity was evaluated by titration (TCID50/mL) on Frp3 cells for HAV and on RAW 264.7 cells for MNV-1. Untreated HAV and MNV-1 suspensions and 40 µM and 80 µM AMP solutions, incubated at the same conditions, were used as controls. Each treatment condition was assayed in triplicate. For titration, 100 µL of serial tenfold dilutions of each sample were assayed in 24-well tissue culture plates containing 24–48 h cell monolayers and incubated for 1 h in 5% CO2 at 37 °C. After that, the wells were washed twice with 200 µL of PBS, and 500 µL of DMEM/MEM, supplemented with 2% of FBS, were was added to each well; MNV-1 and HAV incubations were carried for up to 6 days and 14 days, respectively, in 5% CO2 at 37 °C with daily visual inspection to determine the cytopathic effect. The virucidal efficacy of AMPs was estimated by comparing the titers of treated and untreated viral suspensions.
(§3) For each treatment, the average and standard deviation of the triplicate analyses were calculated. The virucidal effects of AMPs was assessed by calculating the log reduction value (LRV), i.e., the difference between the infectious titer (log-transformed) of untreated versus treated samples. The statistical significance of differences between treated and untreated samples was determined through one-way analysis of variance (ANOVA) with Bonferroni post hoc comparisons, with a significance level of p < 0.05 (GraphPad Prism v9.5.0, software San Diego, CA, USA).

[2] = system: Murine norovirus strain 1 (MNV-1); assay type: cell-based; settings: for Viral Titre after Treatment: titration on RAW 264.7 cells; for Viral Titre after Treatment / LRV (log reduction value): mean ± SD, triplicate
Description: as §1, §2, §3

[3] = pH 2; cited from earlier work
Experimental: In this context, to acquire important information on how the conformational properties of peptides might influence the structure–function relationships and their distinct membrane interaction profiles, the propensity of the new peptides, RiLK30 and AVP2, to adopt a defined secondary structure and to undergo conformational changes were examined by circular dichroism and fluorescence spectroscopy. These analyses were performed in the presence of a negatively charged SDS that is commonly used as a biomimetic membrane model to study the structural features of membranotropic molecules. In previous ...

[4] = assay type: physicochemical
Experimental: Circular Dichroism (CD) analysis was performed by a Jasco J-810 spectropolarimeter. The samples were loaded into a quartz cuvette of 0.1 cm path length (Hellma Analytics), and the spectra were recorded in the 195–250 nm range at a scan speed of 20 nm/min, averaging 5 scans. CD experiments were carried out in 10 mM Tris-HCl buffer, pH 7.0, as a function of SDS concentrations (3, 50, and 150 mM) at a peptide concentration of 50 µM. The folding kinetic measurements of the peptides were performed after the addition of SDS (50 mM) to each sample (50 µM in 10 mM Tris-HCl, pH 7.0) up to 24 h of incubation. For thermal stability analyses, the peptides were prepared to a final concentration of 50 μM in 10 mM Tris-HCl, pH 7.0, and then they were incubated at 4 and 25 °C up to 48 h before acquiring the CD spectra in the presence of 50 mM SDS. A blank spectrum of a sample containing all components except the peptide was acquired for the baseline correction of the CD spectra of the peptide. The mean residue ellipticity ([θ], deg cm^2 dmol^−1) was obtained by the equation [θ] = 100 θ/cnl, where θ is the ellipticity (mdeg), c is the peptide concentration (mM), n is the number of residues, and l is the path length (cm).
Tryptophan (Trp) fluorescence emission spectra were recorded at 25 °C on a Shimadzu RF-6000 spectrofluorometer (Kyoto, Japan), with both excitation and emission slit widths set at 5 nm. The intrinsic Trp was excited at a wavelength of 280 nm and the emission was monitored between 300 and 400 nm. Fluorescence measurements were carried out in 10 mM Tris-HCl buffer, pH 7.0, as a function of SDS concentrations (3, 50, and 150 mM) at a peptide concentration of 50 µM. The folding kinetic experiments of AVP2 and RiLK30 were performed after the addition of SDS (50 mM) to each sample (50 µM concentration in 10 mM Tris-HCl buffer, pH 7.0) up to 24 h of incubation. The effect of temperature on peptide folding was analyzed by dissolving the peptides at a final concentration of 50 µM in 10 mM Tris-HCl buffer, pH 7.0, and incubating them at 4 and 25 °C up to 48 h. The spectra were recorded in the presence of 50 mM SDS.

[5] = HAV 4.7 ± 0.2 log TCID50/mL + peptide 80 µM, 1 h at 4 °C
[6] = HAV + peptide 40 µM, 1 h at 4 °C
[7] = HAV + peptide 40 µM, 1 h at 4 °C, untreated minus treated titre
[8] = HAV + peptide 40 µM, 1 h at RT (20 ± 2 °C)
[9] = HAV + peptide 80 µM, 1 h at 4 °C, untreated minus treated titre
[10] = HAV + peptide 80 µM, 1 h at RT (20 ± 2 °C)
[11] = maximum reduction, corresponding to the highest LRV
[12] = MNV-1 4.5 ± 0.2 log TCID50/mL + peptide 80 µM, 1 h at 4 °C
[13] = MNV-1 + peptide 40 µM, 1 h at 4 °C
[14] = MNV-1 + peptide 40 µM, 1 h at RT (20 ± 2 °C)
[15] = MNV-1 + peptide 80 µM, 1 h at 4 °C
[16] = MNV-1 + peptide 80 µM, 1 h at RT (20 ± 2 °C)

Compound | Viral Titre after Treatment [1, 5] [logTCID50/mL] | Viral Titre after Treatment [1, 6] [logTCID50/mL] | LRV (log reduction value) [1, 7] [logTCID50/mL] | LRV (log reduction value) [1, 8] [logTCID50/mL] | Viral Titre after Treatment [1, 8] [logTCID50/mL] | LRV (log reduction value) [1, 9] [logTCID50/mL] | LRV (log reduction value) [1, 10] [logTCID50/mL] | Viral Titre after Treatment [1, 10] [logTCID50/mL] | Viral Titre after Treatment [2, 12] [logTCID50/mL] | LRV (log reduction value) [2, 13] [logTCID50/mL] | Viral Titre after Treatment [2, 13] [logTCID50/mL] | LRV (log reduction value) [2, 14] [logTCID50/mL] | Viral Titre after Treatment [2, 14] [logTCID50/mL] | LRV (log reduction value) [2, 15] [logTCID50/mL] | LRV (log reduction value) [2, 16] [logTCID50/mL] | Viral Titre after Treatment [2, 16] [logTCID50/mL] | further results
CC[C@H](C)[C@H](NC(=O)[C@H](CCCNC(=N)N)NC(=O)[C@@H](NC(=O)[C@H](CCCCN)NC(=O)[C@@H](NC(=O)[C@@H](NC(=O)[C@H](CC(C)C)NC(=O)[C@H](CCCNC(=N)N)NC(=O)[C@@H](N)C(C)C)[C@@H](C)CC)C(C)C)C(C)C)C(=O)N[C@@H](Cc1c[nH]c2ccccc12)C(=O)N[C@@H](CCCNC(=N)N)C(=O)N[C@@H](CCCNC(=N)N)C(N)=O [1018-K6] (H-VRLIVKVRIWRR-NH2; N-terminus assumed) | 3.3 ± 0.2 | 3.4 ± 0.1 | 1.3 ± 0.3 | 1.4 ± 0.4 | 3.3 ± 0.2 | 1.4 ± 0.4 | 1.4 ± 0.4 | 3.3 ± 0.2 | 4.3 ± 0.2 | 0 ± 0.3 | 4.5 ± 0.1 | 0 ± 0.4 | 4.5 ± 0.2 | 0.2 ± 0.4 | 0.2 ± 0.4 | 4.3 ± 0.2 | decrease of HAV infectious titer [1, 11]: up to 96.7%; infectivity reduction on HAV ([1]; text summary over 40 µM and 80 µM and the two temperatures (4 °C, RT)): 1.3–1.4 log; virucidal activity toward MNV-1 (in words) ([2]; 40 and 80 µM, 4 °C and RT): no significant effects; structural stability [3]: high structural stability
CC[C@H](C)[C@H](NC(=O)[C@H](Cc1cnc[nH]1)NC(=O)[C@H](CCCCN)NC(=O)[C@@H](NC(=O)[C@@H](NC(=O)[C@H](CC(=O)O)NC(=O)[C@H](Cc1ccccc1)NC(=O)[C@H](Cc1c[nH]c2ccccc12)NC(=O)CN)C(C)C)C(C)C)C(=O)N[C@@H](C)C(=O)N[C@@H](CCCCN)C(=O)N[C@@H](CCCNC(=N)N)C(=O)N[C@@H](Cc1ccccc1)C(N)=O [AVP2, reference compound] (H-GWFDVVKHIAKRF-NH2) | – | – | – | – | – | – | – | – | – | – | – | – | – | – | – | – | thermal (conformational) stability in SDS micellar solution ([4]; pH 7): at least 48 h
CC[C@H](C)[C@H](NC(=O)[C@H](Cc1c[nH]cn1)NC(=O)[C@H](CCCCN)NC(=O)[C@@H](NC(=O)[C@@H](NC(=O)[C@H](CC(=O)O)NC(=O)[C@H](Cc1ccccc1)NC(=O)[C@H](Cc1c[nH]c2ccccc12)NC(=O)CN)C(C)C)C(C)C)C(=O)N[C@@H](C)C(=O)N[C@@H](CCCCN)C(=O)N[C@@H](CCCNC(=N)N)C(=O)N[C@@H](Cc1ccccc1)C(N)=O [AVP2, reference compound] (H-GWFDVVKHIAKRF-NH2; N-terminus assumed) | 4.3 ± 0.2 | 4.3 ± 0.2 | 0.4 ± 0.4 | 0.4 ± 0.4 | 4.3 ± 0.2 | 0.4 ± 0.4 | 0.7 ± 0.5 | 4.0 ± 0.3 | 3.6 ± 0.1 | 0.9 ± 0.3 | 3.6 ± 0.1 | 0.9 ± 0.3 | 3.6 ± 0.1 | 0.9 ± 0.3 | 1.0 ± 0.3 | 3.5 ± 0.1 | virucidal activity toward HAV (in words) ([1]; 40 and 80 µM, 4 °C and RT): limited reduction in infectivity; LRV against MNV-1 ([2]; at both temperatures (4 °C, RT)): 0.9 log and 1.0 log; reduction of MNV-1 infectivity [2, 11]: up to 91.3%; conformational rearrangement over time (CD and fluorescence spectra) ([4]; peptide 50 µM, 10 mM Tris-HCl pH 7.0, SDS 50 mM, 24 h incubation at 37 °C (legend: 25 °C)): did not appear to undergo significant changes
